Each block holds one compound with its values, some of them ahead of it.
Legend:
[1] = molecular target: T1, Transthyretin (Homo sapiens, UniProt P02766); experiment: Stabilization of wild-type TTR (unknown origin) expressed in Escherichia coli BL21(DE3) assessed as reduction in urea-induced tetramer dissociation at 3.6 uM preincubated for 30 mins followed by urea addition measured for 100 hrs by fluorescence based assay relative to control; parameters: scale not given: the % may be the effect or the level left; settings: time 100.5 hrs
[2] = test system: Transthyretin (Homo sapiens), P02766 [V50M]; experiment: Stabilization of TTR V30M mutant (unknown origin) expressed in Escherichia coli BL21(DE3) assessed as reduction in urea-induced tetramer dissociation at 3.6 uM preincubated for 30 mins followed by urea addition measured for 100 hrs by fluorescence based assay relative to control; parameters: scale not given: the % may be the effect or the level left; settings: time 100.5 hrs
[3] = test system: Transthyretin (Homo sapiens), P02766 [V142I]; experiment: Stabilization of TTR V122I mutant (unknown origin) expressed in Escherichia coli BL21(DE3) assessed as reduction in urea-induced tetramer dissociation at 3.6 uM preincubated for 30 mins followed by urea addition measured for 100 hrs by fluorescence based assay relative to control; parameters: scale not given: the % may be the effect or the level left; settings: time 100.5 hrs
[4] = Half life in CD-1 mouse at 1 mg/kg, iv measured for 24 hrs by UPLC-MS/MS analysis; type: ADME, organism-based; settings: in vivo
[5] = AUC (0 to 24 hrs) in CD-1 mouse at 1 mg/kg, iv by UPLC-MS/MS analysis; type: ADME, organism-based; parameters: time 24 hrs, dose 1 mg/kg, route iv; settings: in vivo
[6] = Cmax in CD-1 mouse at 1 mg/kg, iv measured for 24 hrs by UPLC-MS/MS analysis; type: ADME, organism-based; parameters: dose 1 mg/kg, time 24 hrs, route iv; settings: in vivo
[7] = molecular target: T1, Transthyretin; experiment: Stabilization of wild-type TTR (unknown origin) expressed in Escherichia coli BL21(DE3) assessed as inhibition of TTR aggregation at 1:1 ratio of TTR:compound incubated for 30 mins followed by acidification measured for 72 hrs by turbidimetry relative to control; settings: time 72.5 hrs
[8] = molecular target: T1, Transthyretin; experiment: Stabilization of wild-type TTR (unknown origin) expressed in Escherichia coli BL21(DE3) assessed as inhibition of TTR aggregation at 20 uM incubated for 30 mins followed by acidification measured for 72 hrs by turbidimetry relative to control; settings: time 72.5 hrs
[9] = test system: Transthyretin (Homo sapiens), P02766 [V50M]; experiment: Stabilization of TTR V30M mutant (unknown origin) expressed in Escherichia coli BL21(DE3) assessed as inhibition of TTR aggregation at 20 uM incubated for 30 mins followed by acidification measured for 72 hrs by turbidimetry relative to control; settings: time 72.5 hrs
[10] = test system: Transthyretin (Homo sapiens), P02766 [V142I]; experiment: Stabilization of TTR V122I mutant (unknown origin) expressed in Escherichia coli BL21(DE3) assessed as inhibition of TTR aggregation at 20 uM incubated for 30 mins followed by acidification measured for 72 hrs by turbidimetry relative to control; settings: time 72.5 hrs
[11] = molecular target: T1, Transthyretin; experiment: Stabilization of wild-type TTR (unknown origin) expressed in Escherichia coli BL21(DE3) assessed as inhibition of TTR aggregation incubated for 30 mins followed by acidification measured for 72 hrs by turbidimetry relative to control; settings: time 72.5 hrs
[12] = molecular target: T1, Transthyretin; experiment: Binding affinity to wild-type TTR (unknown origin) expressed in Escherichia coli BL21(DE3) assessed as dissociation constant by ITC analysis
[13] = molecular target: T1, Transthyretin; experiment: Binding affinity to wild-type TTR (unknown origin) expressed in Escherichia coli BL21(DE3) assessed as change in gibbs free energy at 100 uM by ITC analysis
[14] = molecular target: T1, Transthyretin; experiment: Binding affinity to wild-type TTR (unknown origin) expressed in Escherichia coli BL21(DE3) assessed as change in enthalpy at 100 uM by ITC analysis
[15] = molecular target: T1, Transthyretin; experiment: Binding affinity to wild-type TTR (unknown origin) expressed in Escherichia coli BL21(DE3) assessed as change in entropy at 100 uM by ITC analysis
[16] = molecular target: Transthyretin (Homo sapiens, UniProt P02766, V50M); experiment: Binding affinity to TTR V30M mutant (unknown origin) expressed in Escherichia coli BL21(DE3) assessed as dissociation constant by ITC analysis
[17] = test system: Transthyretin (Homo sapiens), P02766 [V50M]; experiment: Binding affinity to TTR V30M mutant (unknown origin) expressed in Escherichia coli BL21(DE3) assessed as change in gibbs free energy at 100 uM by ITC analysis
[18] = test system: Transthyretin (Homo sapiens), P02766 [V50M]; experiment: Binding affinity to TTR V30M mutant (unknown origin) expressed in Escherichia coli BL21(DE3) assessed as change in enthalpy at 100 uM by ITC analysis
[19] = test system: Transthyretin (Homo sapiens), P02766 [V50M]; experiment: Binding affinity to TTR V30M mutant (unknown origin) expressed in Escherichia coli BL21(DE3) assessed as change in entropy at 100 uM by ITC analysis
[20] = molecular target: Transthyretin (Homo sapiens, UniProt P02766, V142I); experiment: Binding affinity to TTR V122I mutant (unknown origin) expressed in Escherichia coli BL21(DE3) assessed as dissociation constant by ITC analysis
[21] = test system: Transthyretin (Homo sapiens), P02766 [V142I]; experiment: Binding affinity to TTR V122I mutant (unknown origin) expressed in Escherichia coli BL21(DE3) assessed as change in gibbs free energy at 100 uM by ITC analysis
[22] = test system: Transthyretin (Homo sapiens), P02766 [V142I]; experiment: Binding affinity to TTR V122I mutant (unknown origin) expressed in Escherichia coli BL21(DE3) assessed as change in enthalpy at 100 uM by ITC analysis
[23] = test system: Transthyretin (Homo sapiens), P02766 [V142I]; experiment: Binding affinity to TTR V122I mutant (unknown origin) expressed in Escherichia coli BL21(DE3) assessed as change in entropy at 100 uM by ITC analysis
[24] = molecular target: T1, Transthyretin; experiment: Potency index, ratio of Kd for Tolcapone to test compound for wild-type TTR (unknown origin) expressed in Escherichia coli BL21(DE3) assessed as dissociation constant by ITC analysis
[25] = test system: Transthyretin (Homo sapiens), P02766 [V142I]; experiment: Potency index, ratio of Kd for Tolcapone to test compound for TTR V122I mutant (unknown origin) expressed in Escherichia coli BL21(DE3) assessed as dissociation constant by ITC analysis
[26] = test system: Transthyretin (Homo sapiens), P02766 [V50M]; experiment: Potency index, ratio of Kd for Tolcapone to test compound for TTR V30M mutant (unknown origin) expressed in Escherichia coli BL21(DE3) assessed as dissociation constant by ITC analysis
[27] = molecular target: T1, Transthyretin; experiment: Displacement of [125I]-T4 from TTR in human plasma incubated for 1 hr by densitometry relative to control; type: cell-free
[28] = test system: Transthyretin (Homo sapiens), P02766 [V50M]; experiment: Displacement of [125I]-T4 from TTR V30M mutant in human plasma incubated for 1 hr by densitometry relative to control; type: cell-free
[29] = test system: Transthyretin (Homo sapiens), P02766 [V50M]; experiment: Stabilization of TTR V30M mutant in human plasma assessed as degree of tetramer stability at 19.1 uM incubated overnight followed by urea addition measured after 5 hrs by isoelectric focusing based densitometry relative to control; type: cell-free
[30] = test system: HeLa; experiment: Cytotoxicity against human HeLa cells assessed as cell viability upto 100 uM incubated for 72 hrs by PrestoBlue assay; type: toxicity, cell-based
[31] = test system: HepG2; experiment: Cytotoxicity against human HepG2 cells assessed as cell viability upto 100 uM incubated for 72 hrs by PrestoBlue assay; type: toxicity, cell-based; settings: hepg2, 72 h
[32] = test system: MRC5; experiment: Cytotoxicity against human MRC5 cells assessed as cell viability upto 100 uM incubated for 72 hrs by PrestoBlue assay; type: toxicity, cell-based; settings: mrc5, 72 h
[33] = Tmax in CD-1 mouse at 10 mg/kg, po measured for 24 hrs by UPLC-MS/MS analysis; type: ADME, organism-based; settings: in vivo
[34] = Cmax in CD-1 mouse at 10 mg/kg, po measured for 24 hrs by UPLC-MS/MS analysis; type: ADME, organism-based; parameters: dose 10 mg/kg, time 24 hrs, route po; settings: in vivo
[35] = AUC (0 to 24 hrs) in CD-1 mouse at 10 mg/kg, po measured for 24 hrs by UPLC-MS/MS analysis; type: ADME, organism-based; parameters: time 24 hrs, dose 10 mg/kg, route po; settings: in vivo
[36] = Half life in CD-1 mouse at 10 mg/kg, po measured for 24 hrs by UPLC-MS/MS analysis; type: ADME, organism-based; settings: in vivo
[37] = Elimination rate constant in CD-1 mouse at 1 mg/kg, iv measured for 24 hrs by UPLC-MS/MS analysis; type: ADME, organism-based; settings: in vivo
[38] = Volume of distribution in CD-1 mouse at 1 mg/kg, iv measured for 24 hrs by UPLC-MS/MS analysis; type: ADME, organism-based; settings: in vivo
[39] = Clearance in CD-1 mouse at 1 mg/kg, iv measured for 24 hrs by UPLC-MS/MS analysis; type: ADME, organism-based; settings: in vivo
[40] = Elimination rate constant in CD-1 mouse at 10 mg/kg, po measured for 24 hrs by UPLC-MS/MS analysis; type: ADME, organism-based; settings: in vivo
[41] = Volume of distribution in CD-1 mouse at 10 mg/kg, po measured for 24 hrs by UPLC-MS/MS analysis; type: ADME, organism-based; settings: in vivo
[42] = Clearance in CD-1 mouse at 10 mg/kg, po measured for 24 hrs by UPLC-MS/MS analysis; type: ADME, organism-based; settings: in vivo
[43] = Oral bioavailability in CD-1 mouse at 10 mg/kg measured for 24 hrs by UPLC-MS/MS analysis; type: ADME, organism-based; settings: in vivo

Activity [1]: 94.1%
Activity [2]: 79.2%
Activity [3]: 92.5%
half-life [4]: 3.5 h
AUC(0-t) at 24 h [5]: 3160 ng·h/mL
Cmax [6]: 4040 ng/mL
inhibition [7]: > 60%
inhibition [8]: 89.2%
inhibition [9]: 92%
inhibition [10]: < 90%
inhibition [11]: > 87.5%
Kd [12]: 16 nM
deltaG [13]: -10.6 kcal/mol
deltaH [14]: -13.4 kcal/mol
-TdeltaS [15]: 2.8 kcal/mol
Kd [16]: 36 nM
deltaG [17]: -10.2 kcal/mol
deltaH [18]: -11 kcal/mol
-TdeltaS [19]: 0.8 kcal/mol
Kd [20]: 14 nM
deltaG [21]: -10.7 kcal/mol
deltaH [22]: -16.1 kcal/mol
-TdeltaS [23]: 5.4 kcal/mol
Ratio [24]: > 3
Ratio [25]: > 3
Ratio [26]: > 12
Activity [27]: 97.3%
Activity [28]: 94.5%
Activity [29]: 17.4%
Tmax [33]: 0.5 h
Cmax [34]: 4180 ng/mL
AUC(0-t) at 24 h [35]: 26900 ng·h/mL
half-life [36]: 10.1 h
k el at 24 h [37]: 5.58e-05 s⁻¹
Vd [38]: 1.57 L/kg
clearance [39]: 5.25 mL/min/kg
k el at 24 h [40]: 1.92e-05 s⁻¹
Vd [41]: 4.482 L/kg
CL/F [42]: 5.13 mL/min/kg
bioavailability [43]: 85.1%
Structure (SMILES): COc1cc(C(=O)c2cc(O)cc(F)c2)cc([N+](=O)[O-])c1O
Activity [30]: Non-Toxic
Activity [31]: Non-Toxic
Activity [32]: Non-Toxic

deltaH [14]: -13.6 kcal/mol
-TdeltaS [15]: 3.6 kcal/mol
deltaH [18]: -13.8 kcal/mol
-TdeltaS [19]: 5.1 kcal/mol
deltaH [22]: -12.2 kcal/mol
-TdeltaS [23]: 2.2 kcal/mol
Activity [29]: 4.9%
Tmax [33]: < 0.25 h
Cmax [34]: 7620 ng/mL
AUC(0-t) at 24 h [35]: 11900 ng·h/mL
half-life [36]: 1.4 h
k el at 24 h [40]: 0.000139 s⁻¹
Vd [41]: 1.6 L/kg
CL/F [42]: 13.3 mL/min/kg
Structure (SMILES): Cc1ccc(C(=O)c2cc(O)c(O)c([N+](=O)[O-])c2)cc1 [TOLCAPONE]

Reference: ChEMBL document CHEMBL5335793, “PITB: A high affinity transthyretin aggregation inhibitor with optimal pharmacokinetic properties” (Eur J Med Chem, 2023)
